# US20240366594A1, “Small Molecule Inhibitors of Formation of Neutrophil-Derived Extracellular Traps (NETosis) and Uses Thereof” (The Brigham and Women's Hospital, Inc., priority 2021, published 2024)
# Legend:
# [1] = tested on: human neutrophils; experiment: Citrullinated histone H3 (CitH3) NET induction in PMA-stimulated human neutrophils; format: cell-based; settings: for NETosis (anti-CitH3 signal), comparison of class I/IIb and class IIb selective inhibitors: drugs 10, 2, 0.4, 0.08 μM 1 hour, then 1 μM PMA 3 hours, FIG. 5F
# Description: FIGS. 1A-H. Class I/II HDACs drive NET formation • (A and B) Freshly purified human (A) or mouse (B) neutrophils were treated with the indicated HDAC inhibitors at different doses (10, 2, 0.4, 0.08 μM), or with GSK484 (10 μM), for 1 h and then stimulated with 1 μM PMA for 3 h. Cells were fixed and stained with anti-citrullinated histone H3 (CitH3) antibody. NETosis induction was measured as the level of anti-CitH3 fluorescent signal. PMA alone represents 100% of NET induction. “-”: Cells treated with the highest dose of the indicated drug but not activated with PMA. • (C and D) Human neutrophils were treated, or not, with ricolinostat or GSK484 and then stimulated with 1 μM PMA. NETosis induction was measured as area of nuclei stained with DAPI. (C) 3D reconstruction of nuclei in each treatment (grid size 7.8 μm). (D) Quantification of DAPI signal from multiple fields of view (D) (n=9 for unstimulated, not pretreated with any drug [NT] and ricolinostat, n=7 for GSK484). • (E and F) Human neutrophils were treated as in (C-D), and immunoblot analysis of the indicated proteins was performed. Relative quantification of band intensity was analyzed with ImageJ software (F). White violins plots depict the quantification of histone H3 acetylation; red violin plots depict the quantification of histone H3 citrullination. Immunoblot in E is representative of four independent experiments. Gasdermin D NT, gasdermin D N terminal; pMLKL, phospho-MLKL. • (G) Human (left) or murine (right) neutrophils were treated, or not, with ricolinostat (10 μM) and then stimulated with 1 μM PMA for 3 h. ROS production was measured by luminescence with luminol-HRP. Histograms represent the total amount of ROS produced overtime. • (H) Murine neutrophils were treated, or not, with ricolinostat (10 μM) and then stimulated with fluorescent E. coli at the indicated multiplicity of infection (MOI) for 1 h. The histogram represents the percentage of neutrophils positive for E. coli staining. Graphs show mean±SEM. Statistics were calculated using one-way ANOVA (A, B, D) and two-way ANOVA (F, G, H) (*p<0.05; **p<0.01; ****p<0.0001. n.s., not significant). Statistics refers to the comparison with neutrophils stimulated with PMA alone (A, B). Gray stars represent comparison of all experimental groups with the unstimulated control, and black stars represent comparison between drug-treated groups and cells treated with PMA only (NT) (D). See also FIGS. 5A-J.
# FIGS. 5A-J. Class I/II HDACs drive NET formation. • A) Quantification of extracellular DNA released by neutrophils treated, or not, with 1 μM GSK484 for 1 h and then stimulated with 1 μM PMA for 4 hours. Unstimulated, neutrophils not treated with drugs were used as a control. • B) Freshly purified human neutrophils were treated with the indicated HDAC inhibitors at different doses (0.08, 0.4, 2 and 10 μM) for 1 hour. Extracellular DNA release was assessed in the supernatant 3 hours after PMA stimulation. The dotted line represents the amount of DNA released from neutrophils treated with PMA alone. “-”: cells treated with the highest dose of the indicated drug but not activated with PMA. • C) Freshly purified human neutrophils were stimulated for 1 h, 3 h or 5 h. Cells were fixed and stained with an anti-CitH3 antibody. NETosis induction was measured as level of anti-CitH3 fluorescent signal. 5h-PMA treatment represents 100% NET induction. • D) Representative images of freshly isolated human neutrophils treated or not with 10 μM of the indicated drugs and stimulated with 1 μM PMA for 3 hours. Cells were fixed and then stained for CitH3 (red) and nuclei (blue). Scale bar=100 μm. • E) Murine neutrophils were treated with ricolinostat or GSK484 and then stimulated with […] for 3 hours. NET induction was measured as in (C). […]
# [2] = tested on: mouse neutrophils; experiment: Citrullinated histone H3 (CitH3) NET induction in PMA-stimulated mouse neutrophils; format: cell-based
# Description: FIGS. 1A-H. Class I/II HDACs drive NET formation • (A and B) Freshly purified human (A) or mouse (B) neutrophils were treated with the indicated HDAC inhibitors at different doses (10, 2, 0.4, 0.08 μM), or with GSK484 (10 μM), for 1 h and then stimulated with 1 μM PMA for 3 h. Cells were fixed and stained with anti-citrullinated histone H3 (CitH3) antibody. NETosis induction was measured as the level of anti-CitH3 fluorescent signal. PMA alone represents 100% of NET induction. “-”: Cells treated with the highest dose of the indicated drug but not activated with PMA. • (C and D) Human neutrophils were treated, or not, with ricolinostat or GSK484 and then stimulated with 1 μM PMA. NETosis induction was measured as area of nuclei stained with DAPI. (C) 3D reconstruction of nuclei in each treatment (grid size 7.8 μm). (D) Quantification of DAPI signal from multiple fields of view (D) (n=9 for unstimulated, not pretreated with any drug [NT] and ricolinostat, n=7 for GSK484). • (E and F) Human neutrophils were treated as in (C-D), and immunoblot analysis of the indicated proteins was performed. Relative quantification of band intensity was analyzed with ImageJ software (F). White violins plots depict the quantification of histone H3 acetylation; red violin plots depict the quantification of histone H3 citrullination. Immunoblot in E is representative of four independent experiments. Gasdermin D NT, gasdermin D N terminal; pMLKL, phospho-MLKL. • (G) Human (left) or murine (right) neutrophils were treated, or not, with ricolinostat (10 μM) and then stimulated with 1 μM PMA for 3 h. ROS production was measured by luminescence with luminol-HRP. Histograms represent the total amount of ROS produced overtime. • (H) Murine neutrophils were treated, or not, with ricolinostat (10 μM) and then stimulated with fluorescent E. coli at the indicated multiplicity of infection (MOI) for 1 h. The histogram represents the percentage of neutrophils positive for E. coli staining. Graphs show mean±SEM. Statistics were calculated using one-way ANOVA (A, B, D) and two-way ANOVA (F, G, H) (*p<0.05; **p<0.01; ****p<0.0001. n.s., not significant). Statistics refers to the comparison with neutrophils stimulated with PMA alone (A, B). […]
# FIGS. 5A-J. Class I/II HDACs drive NET formation. • A) Quantification of extracellular DNA released by neutrophils treated, or not, with 1 μM GSK484 for 1 h and then stimulated with 1 μM PMA for 4 hours. […] Extracellular DNA release was assessed in the supernatant 3 hours after PMA stimulation. […] NETosis induction was measured as level of anti-CitH3 fluorescent signal. […] NET induction was measured as in (C). […]
smiles,measurement,setting,value
O=C(CCCCCCNC(=O)c1cnc(N(c2ccccc2)c2ccccc2Cl)nc1)NO [citarinostat],"NET formation (level of CitH3), two independent donors","[1]; 10, 2, 0.4, 0.08 μM for 1 h, then 1 μM PMA, FIGS. 5H, 5I",inhibited NET formation to a comparable extent
same,NET formation (level of CitH3),"[2]; murine neutrophils, PMA, FIG. 5J",inhibited NET formation to a comparable extent
Nc1ccccc1NC(=O)c1ccc(CNC(=O)OCc2cccnc2)cc1 [entinostat],"NET induction, measured as CitH3 staining","[1]; drugs 10, 2, 0.4, 0.08 μM or GSK484 10 μM for 1 h, then 1 μM PMA 3 h, FIGS. 1A and 5D",prevented NET release in a dose-dependent manner with an efficacy comparable with GSK484
same,release of CitH3 (NET induction),"[2]; drugs 10, 2, 0.4, 0.08 μM for 1 h, then 1 μM PMA 3 h, FIG. 1B",no effect
CCCCN(Cc1ccc(C(=O)NO)cc1)C(=O)Nc1ccccc1 [nexturastat],"NETosis (anti-CitH3 signal), comparison of class I/IIb and class IIb selective inhibitors",[1],selective class IIb targeting did not
O=C(CCCCCCC(=O)Nc1ccc([C@H]2O[C@@H](CSc3nc(-c4ccccc4)c(-c4ccccc4)o3)C[C@@H](c3ccc(CO)cc3)O2)cc1)NO [tubacin],"NETosis (anti-CitH3 signal), comparison of class I/IIb and class IIb selective inhibitors",[1],class I/IIb HDAC inhibition prevented NETosis
CN1CCc2c(c3ccccc3n2Cc2ccc(C(=O)NO)cc2)C1 [tubastatin A],"NETosis (anti-CitH3 signal), comparison of class I/IIb and class IIb selective inhibitors",[1],selective class IIb targeting did not
